Assay results reported in ChEMBL document CHEMBL4507278 (2021).

What was measured:
[1] = target: Calcium/calmodulin-dependent protein kinase type 1 (Homo sapiens) (UniProt Q14012); settings: Compound concentration 1000.0 nM
[2] = target: Non-receptor tyrosine-protein kinase TNK1 (Homo sapiens) (UniProt Q13470); settings: Compound concentration 1000.0 nM
[3] = target: Mitogen-activated protein kinase kinase kinase 15 (Homo sapiens) (UniProt Q6ZN16); settings: Compound concentration 1000.0 nM
[4] = target: Serine/threonine-protein kinase MRCK gamma (Homo sapiens) (UniProt Q6DT37); settings: Compound concentration 1000.0 nM
[5] = tested on: Tyrosine-protein kinase ABL1 (Homo sapiens), P00519 [T315I]; settings: Compound concentration 1000.0 nM
[6] = target: Mitogen-activated protein kinase kinase kinase 4 (Homo sapiens) (UniProt Q9Y6R4); settings: Compound concentration 1000.0 nM
[7] = target: Serine/threonine-protein kinase tousled-like 1 (Homo sapiens) (UniProt Q9UKI8); settings: Compound concentration 1000.0 nM
[8] = target: Dual specificity tyrosine-phosphorylation-regulated kinase 1B (Homo sapiens) (UniProt Q9Y463); settings: Compound concentration 1000.0 nM
[9] = target: Wee1-like protein kinase 2 (Homo sapiens) (UniProt P0C1S8); settings: Compound concentration 1000.0 nM
[10] = target: Receptor tyrosine-protein kinase erbB-2 (Homo sapiens) (UniProt P04626); settings: Compound concentration 1000.0 nM
[11] = tested on: Epidermal growth factor receptor (Homo sapiens), P00533 [UNDEFINED MUTATION]; settings: Compound concentration 1000.0 nM
[12] = target: Mitogen-activated protein kinase 13 (Homo sapiens) (UniProt O15264); settings: Compound concentration 1000.0 nM
[13] = target: Serine/threonine-protein kinase STK11 (Homo sapiens) (UniProt Q15831); settings: Compound concentration 1000.0 nM
[14] = target: Serine/threonine-protein kinase 36 (Homo sapiens) (UniProt Q9NRP7); settings: Compound concentration 1000.0 nM
[15] = target: Epithelial discoidin domain-containing receptor 1 (Homo sapiens) (UniProt Q08345); settings: Compound concentration 1000.0 nM
[16] = tested on: Receptor-type tyrosine-protein kinase FLT3 (Homo sapiens), P36888 [UNDEFINED MUTATION]; settings: Compound concentration 1000.0 nM
[17] = tested on: Mast/stem cell growth factor receptor Kit (Homo sapiens), P10721 [A829P]; settings: Compound concentration 1000.0 nM
[18] = target: Vascular endothelial growth factor receptor 1 (Homo sapiens) (UniProt P17948); settings: Compound concentration 1000.0 nM
[19] = target: Peripheral plasma membrane protein CASK (Homo sapiens) (UniProt O14936); settings: Compound concentration 1000.0 nM
[20] = tested on: Epidermal growth factor receptor (Homo sapiens), P00533 [T790M]; settings: Compound concentration 1000.0 nM
[21] = target: Serine/threonine-protein kinase PRP4 homolog (Homo sapiens) (UniProt Q13523); settings: Compound concentration 1000.0 nM
[22] = target: cAMP-dependent protein kinase catalytic subunit PRKX (Homo sapiens) (UniProt P51817); settings: Compound concentration 1000.0 nM
[23] = target: Receptor-type tyrosine-protein kinase FLT3 (Homo sapiens) (UniProt P36888); settings: Compound concentration 1000.0 nM
[24] = target: Serine/threonine-protein kinase MRCK beta (Homo sapiens) (UniProt Q9Y5S2); settings: Compound concentration 1000.0 nM
[25] = target: Bone morphogenetic protein receptor type-1A (Homo sapiens) (UniProt P36894); settings: Compound concentration 1000.0 nM
[26] = target: Serine/threonine-protein kinase Nek4 (Homo sapiens) (UniProt P51957); settings: Compound concentration 1000.0 nM
[27] = target: Mitogen-activated protein kinase 4 (Homo sapiens) (UniProt P31152); settings: Compound concentration 1000.0 nM
[28] = target: Histamine H2 receptor (Homo sapiens) (UniProt P25021); settings: Compound concentration 10.0 uM
[29] = target: Calcium/calmodulin-dependent protein kinase type II subunit alpha (Homo sapiens) (UniProt Q9UQM7); settings: Compound concentration 1000.0 nM
[30] = target: D(1B) dopamine receptor (Homo sapiens) (UniProt P21918); settings: Compound concentration 10.0 uM
[31] = target: Serine/threonine-protein kinase ULK3 (Homo sapiens) (UniProt Q6PHR2); settings: Compound concentration 1000.0 nM
[32] = target: cGMP-dependent protein kinase 1 (Homo sapiens) (UniProt Q13976); settings: Compound concentration 1000.0 nM
[33] = target: Serine/threonine-protein kinase Nek3 (Homo sapiens) (UniProt P51956); settings: Compound concentration 1000.0 nM
[34] = tested on: Phosphatidylinositol 4,5-bisphosphate 3-kinase catalytic subunit alpha isoform (Homo sapiens), P42336 [Q546K]; settings: Compound concentration 1000.0 nM
[35] = target: Casein kinase II subunit alpha' (Homo sapiens) (UniProt P19784); settings: Compound concentration 1000.0 nM
[36] = target: Tyrosine-protein kinase HCK (Homo sapiens) (UniProt P08631); settings: Compound concentration 1000.0 nM
[37] = target: Mitogen-activated protein kinase 14 (Homo sapiens) (UniProt Q16539); settings: Compound concentration 1000.0 nM
[38] = target: Platelet-derived growth factor receptor alpha (Homo sapiens) (UniProt P16234); settings: Compound concentration 1000.0 nM
[39] = target: Serine/threonine-protein kinase D1 (Homo sapiens) (UniProt Q15139); settings: Compound concentration 1000.0 nM
[40] = target: Serine/threonine-protein kinase SIK2 (Homo sapiens) (UniProt Q9H0K1); settings: Compound concentration 1000.0 nM
[41] = target: Mitogen-activated protein kinase 10 (Homo sapiens) (UniProt P53779); settings: Compound concentration 1000.0 nM
[42] = target: Protein kinase C iota type (Homo sapiens) (UniProt P41743); settings: Compound concentration 1000.0 nM
[43] = target: Sodium-dependent dopamine transporter (Homo sapiens) (UniProt Q01959); settings: Compound concentration 10.0 uM
[44] = target: Testis-specific serine/threonine-protein kinase 1 (Homo sapiens) (UniProt Q9BXA7); settings: Compound concentration 1000.0 nM

Sequence of Mitogen-activated protein kinase 10 (Homo sapiens) (P53779 whole entry): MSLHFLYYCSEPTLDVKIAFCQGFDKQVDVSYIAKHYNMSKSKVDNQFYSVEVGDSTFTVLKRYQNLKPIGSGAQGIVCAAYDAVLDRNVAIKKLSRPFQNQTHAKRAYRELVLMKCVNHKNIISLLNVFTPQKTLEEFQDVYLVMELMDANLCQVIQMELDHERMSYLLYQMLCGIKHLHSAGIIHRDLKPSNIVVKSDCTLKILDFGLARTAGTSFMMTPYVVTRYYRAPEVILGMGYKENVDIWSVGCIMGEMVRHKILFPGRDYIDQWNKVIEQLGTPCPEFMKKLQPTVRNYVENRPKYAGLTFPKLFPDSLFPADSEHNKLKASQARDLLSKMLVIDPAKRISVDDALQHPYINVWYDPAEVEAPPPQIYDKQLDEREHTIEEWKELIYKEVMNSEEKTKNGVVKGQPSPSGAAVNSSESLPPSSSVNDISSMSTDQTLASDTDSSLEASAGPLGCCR
Sequence of Casein kinase II subunit alpha' (Homo sapiens) (P19784 whole entry, looked up): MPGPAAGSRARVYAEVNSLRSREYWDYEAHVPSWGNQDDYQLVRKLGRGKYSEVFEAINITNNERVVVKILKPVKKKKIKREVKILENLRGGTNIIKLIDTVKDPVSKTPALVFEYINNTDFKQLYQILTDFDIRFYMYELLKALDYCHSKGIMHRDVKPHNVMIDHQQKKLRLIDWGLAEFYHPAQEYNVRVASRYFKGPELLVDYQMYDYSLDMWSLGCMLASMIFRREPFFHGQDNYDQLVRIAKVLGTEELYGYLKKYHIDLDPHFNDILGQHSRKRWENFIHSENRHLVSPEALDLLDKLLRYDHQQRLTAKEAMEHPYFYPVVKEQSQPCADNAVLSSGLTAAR
Sequence of Peripheral plasma membrane protein CASK (Homo sapiens) (O14936 whole entry): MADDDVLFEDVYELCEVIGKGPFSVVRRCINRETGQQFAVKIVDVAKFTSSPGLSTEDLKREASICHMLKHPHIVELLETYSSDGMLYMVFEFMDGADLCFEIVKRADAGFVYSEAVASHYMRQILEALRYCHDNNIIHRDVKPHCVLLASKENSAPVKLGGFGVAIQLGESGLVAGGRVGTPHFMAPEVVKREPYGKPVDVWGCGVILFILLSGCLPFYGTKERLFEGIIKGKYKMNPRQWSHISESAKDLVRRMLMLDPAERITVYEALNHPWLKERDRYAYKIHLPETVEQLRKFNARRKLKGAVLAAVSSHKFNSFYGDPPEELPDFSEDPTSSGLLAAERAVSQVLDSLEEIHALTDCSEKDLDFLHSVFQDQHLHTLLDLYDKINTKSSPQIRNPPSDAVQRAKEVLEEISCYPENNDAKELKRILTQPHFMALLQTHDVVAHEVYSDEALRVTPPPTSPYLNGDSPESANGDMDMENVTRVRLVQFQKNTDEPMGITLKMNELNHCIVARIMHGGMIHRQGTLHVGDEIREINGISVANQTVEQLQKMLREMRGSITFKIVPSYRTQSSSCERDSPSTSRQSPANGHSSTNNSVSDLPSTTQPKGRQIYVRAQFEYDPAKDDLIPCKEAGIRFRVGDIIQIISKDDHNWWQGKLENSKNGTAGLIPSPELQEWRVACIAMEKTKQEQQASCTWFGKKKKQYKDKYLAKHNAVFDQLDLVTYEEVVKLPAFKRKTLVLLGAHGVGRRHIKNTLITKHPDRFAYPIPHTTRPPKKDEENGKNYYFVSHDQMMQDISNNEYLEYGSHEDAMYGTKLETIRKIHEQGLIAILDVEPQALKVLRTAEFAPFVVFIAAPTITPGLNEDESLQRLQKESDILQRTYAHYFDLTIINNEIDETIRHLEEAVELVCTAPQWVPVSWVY
Sequence of Serine/threonine-protein kinase MRCK beta (Homo sapiens) (Q9Y5S2 whole entry): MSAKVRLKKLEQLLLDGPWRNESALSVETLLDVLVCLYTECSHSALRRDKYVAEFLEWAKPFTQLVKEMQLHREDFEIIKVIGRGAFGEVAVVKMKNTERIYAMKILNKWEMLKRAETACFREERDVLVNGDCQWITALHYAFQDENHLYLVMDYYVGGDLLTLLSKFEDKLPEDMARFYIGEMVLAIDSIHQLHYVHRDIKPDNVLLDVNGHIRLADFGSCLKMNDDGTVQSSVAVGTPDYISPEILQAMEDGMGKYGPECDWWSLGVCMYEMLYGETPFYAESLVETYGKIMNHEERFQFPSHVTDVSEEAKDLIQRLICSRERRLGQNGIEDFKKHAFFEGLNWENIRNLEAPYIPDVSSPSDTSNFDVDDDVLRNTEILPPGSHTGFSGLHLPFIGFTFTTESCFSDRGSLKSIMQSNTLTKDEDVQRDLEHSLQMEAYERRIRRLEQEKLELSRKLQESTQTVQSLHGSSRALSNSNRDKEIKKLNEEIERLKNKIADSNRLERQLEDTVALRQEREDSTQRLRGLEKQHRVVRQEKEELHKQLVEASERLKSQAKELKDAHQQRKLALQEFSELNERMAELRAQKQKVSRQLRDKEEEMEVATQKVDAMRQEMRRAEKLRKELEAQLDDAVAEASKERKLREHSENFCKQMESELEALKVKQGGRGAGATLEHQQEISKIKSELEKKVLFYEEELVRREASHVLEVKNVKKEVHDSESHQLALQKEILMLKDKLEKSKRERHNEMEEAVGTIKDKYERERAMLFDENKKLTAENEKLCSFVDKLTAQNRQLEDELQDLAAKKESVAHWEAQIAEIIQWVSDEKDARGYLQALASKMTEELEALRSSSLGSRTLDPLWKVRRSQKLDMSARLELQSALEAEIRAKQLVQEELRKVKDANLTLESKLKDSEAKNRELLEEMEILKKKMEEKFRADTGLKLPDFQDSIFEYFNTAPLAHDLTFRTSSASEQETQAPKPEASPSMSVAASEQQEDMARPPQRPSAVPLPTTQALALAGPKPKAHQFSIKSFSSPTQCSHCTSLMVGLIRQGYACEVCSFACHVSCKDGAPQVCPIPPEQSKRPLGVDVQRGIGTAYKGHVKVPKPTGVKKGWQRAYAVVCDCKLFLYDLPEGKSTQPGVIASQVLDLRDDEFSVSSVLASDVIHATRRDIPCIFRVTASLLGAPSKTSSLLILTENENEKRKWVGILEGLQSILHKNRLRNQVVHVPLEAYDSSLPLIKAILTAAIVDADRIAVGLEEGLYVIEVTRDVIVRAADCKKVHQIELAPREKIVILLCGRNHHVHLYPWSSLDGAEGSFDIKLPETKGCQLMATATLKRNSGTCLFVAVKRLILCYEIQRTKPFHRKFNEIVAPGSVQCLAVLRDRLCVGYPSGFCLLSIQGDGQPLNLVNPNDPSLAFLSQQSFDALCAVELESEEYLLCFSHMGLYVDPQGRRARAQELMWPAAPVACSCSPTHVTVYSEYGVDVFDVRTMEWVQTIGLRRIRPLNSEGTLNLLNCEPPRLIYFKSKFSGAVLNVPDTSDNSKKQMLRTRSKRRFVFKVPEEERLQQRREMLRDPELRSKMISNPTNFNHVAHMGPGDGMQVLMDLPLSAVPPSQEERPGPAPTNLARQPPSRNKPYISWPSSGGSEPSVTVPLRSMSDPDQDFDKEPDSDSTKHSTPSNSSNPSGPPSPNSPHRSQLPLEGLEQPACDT
Sequence of Serine/threonine-protein kinase D1 (Homo sapiens) (Q15139 whole entry): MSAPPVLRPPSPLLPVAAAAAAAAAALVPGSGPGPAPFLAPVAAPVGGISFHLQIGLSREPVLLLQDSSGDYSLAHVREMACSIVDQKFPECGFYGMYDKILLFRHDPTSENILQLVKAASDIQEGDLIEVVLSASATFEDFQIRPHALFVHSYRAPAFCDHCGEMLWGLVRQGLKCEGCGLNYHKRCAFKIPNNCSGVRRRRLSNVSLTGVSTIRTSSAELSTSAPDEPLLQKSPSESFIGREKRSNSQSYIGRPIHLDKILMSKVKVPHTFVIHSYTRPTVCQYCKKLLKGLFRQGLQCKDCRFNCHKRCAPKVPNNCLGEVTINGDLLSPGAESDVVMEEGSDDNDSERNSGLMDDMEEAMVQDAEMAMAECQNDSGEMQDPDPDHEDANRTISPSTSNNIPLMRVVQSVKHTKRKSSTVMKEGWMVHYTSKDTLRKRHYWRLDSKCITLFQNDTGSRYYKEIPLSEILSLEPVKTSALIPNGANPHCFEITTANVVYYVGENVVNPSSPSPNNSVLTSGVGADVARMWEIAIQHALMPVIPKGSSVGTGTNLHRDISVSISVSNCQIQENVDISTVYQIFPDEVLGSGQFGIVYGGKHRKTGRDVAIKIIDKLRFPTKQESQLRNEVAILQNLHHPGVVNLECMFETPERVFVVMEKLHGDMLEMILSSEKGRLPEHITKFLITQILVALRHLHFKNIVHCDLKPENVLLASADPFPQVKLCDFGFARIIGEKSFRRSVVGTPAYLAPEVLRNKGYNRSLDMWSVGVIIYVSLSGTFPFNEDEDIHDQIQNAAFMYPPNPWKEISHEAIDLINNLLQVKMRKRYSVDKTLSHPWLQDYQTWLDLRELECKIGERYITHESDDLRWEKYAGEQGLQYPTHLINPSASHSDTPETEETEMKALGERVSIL
Sequence of Wee1-like protein kinase 2 (Homo sapiens) (P0C1S8 whole entry, looked up): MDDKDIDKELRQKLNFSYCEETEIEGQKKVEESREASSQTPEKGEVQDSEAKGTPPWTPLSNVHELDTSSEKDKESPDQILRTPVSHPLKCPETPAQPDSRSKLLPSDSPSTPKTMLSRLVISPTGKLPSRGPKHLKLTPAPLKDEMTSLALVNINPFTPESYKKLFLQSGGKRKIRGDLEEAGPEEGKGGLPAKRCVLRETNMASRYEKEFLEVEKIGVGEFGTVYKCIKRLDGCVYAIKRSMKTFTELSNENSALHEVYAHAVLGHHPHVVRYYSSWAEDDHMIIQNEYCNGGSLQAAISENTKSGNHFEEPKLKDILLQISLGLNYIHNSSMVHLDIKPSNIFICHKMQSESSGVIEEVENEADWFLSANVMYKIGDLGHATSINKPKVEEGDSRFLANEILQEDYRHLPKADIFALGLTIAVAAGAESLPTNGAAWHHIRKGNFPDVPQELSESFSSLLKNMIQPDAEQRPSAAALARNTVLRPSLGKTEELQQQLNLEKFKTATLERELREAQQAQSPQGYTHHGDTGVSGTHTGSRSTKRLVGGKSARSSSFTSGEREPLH

CS(=O)(=O)c1cc(C2(NC(=O)c3cncc4c3cnn4-c3ccc(F)cc3)CC2)ccn1 [BI 639667]
inactive: residual activity [1] 65% | residual activity [2] 80% | residual activity [3] 67% | residual activity [4] 100% | residual activity [5] 75% | residual activity [6] 87% | residual activity [7] 75% | residual activity [8] 74% | residual activity [9] 100% | residual activity [10] 100% | residual activity [11] 100% | residual activity [12] 93% | residual activity [13] 100% | residual activity [14] 100% | residual activity [15] 100% | residual activity [16] 70% | residual activity [17] 100% | residual activity [18] 100% | residual activity [19] 100% | residual activity [20] 100% | residual activity [21] 100% | residual activity [22] 85% | residual activity [23] 100% | residual activity [24] 100% | residual activity [25] 100% | residual activity [26] 100% | residual activity [27] 79% | inhibition [28] 3.34% | residual activity [29] 100% | inhibition [30] -0.37% | residual activity [31] 100% | residual activity [32] 100% | residual activity [33] 100% | residual activity [34] 66% | residual activity [35] 80% | residual activity [36] 100% | residual activity [37] 100% | residual activity [38] 90% | residual activity [39] 100% | residual activity [40] 100% | residual activity [41] 100% | residual activity [42] 100% | inhibition [43] 22.5% | residual activity [44] 63%

CS(=O)(=O)NCC[C@H](NC(=O)c1cncc2c1cnn2-c1ccc(F)cc1)c1ccnc(S(C)(=O)=O)c1 [BI 9307]
inactive: residual activity [1] 94% | residual activity [2] 100% | residual activity [3] 100% | residual activity [4] 100% | residual activity [5] 93% | residual activity [6] 84% | residual activity [7] 100% | residual activity [8] 100% | residual activity [9] 100% | residual activity [10] 100% | residual activity [11] 92% | residual activity [12] 100% | residual activity [13] 100% | residual activity [14] 100% | residual activity [15] 92% | residual activity [16] 100% | residual activity [17] 83% | residual activity [18] 90% | residual activity [19] 100% | residual activity [20] 90% | residual activity [21] 69% | residual activity [22] 100% | residual activity [23] 93% | residual activity [24] 95% | residual activity [25] 92% | residual activity [26] 100% | residual activity [27] 100% | inhibition [28] 2.46% | residual activity [29] 100% | inhibition [30] 36% | residual activity [31] 100% | residual activity [32] 96% | residual activity [33] 86% | residual activity [34] 73% | residual activity [35] 100% | residual activity [36] 100% | residual activity [37] 100% | residual activity [38] 100% | residual activity [39] 92% | residual activity [40] 100% | residual activity [41] 100% | residual activity [42] 100% | inhibition [43] 25.3% | residual activity [44] 99%
